Assay results as given in patent US6562837B1, “Use of tetrahydroisoquinoline compounds for the treatment of septicemia” (Korea Institute of Science & Technology, priority 1998, dated 2003).

Key:
[1] = molecular target: α-receptor; assay: Binding affinity to α-adrenoceptor, [3H]prazosin, rat cerebral cortical membrane
Method: For this, the cerebral cortex obtained from rats (Sprague-Dawley, 250±20 g; unless particularly mentioned, the same rats were used in the following experiments) was homogeneously mixed with a 20× buffer (50 mM Tris, 5 mM MgSO4, 1 mM EDTA, 1 mM ascorbic acid, pH 7.7) and then, centrifuged three times at 35,000×g for 15 min and the pellet was stored at −70° C. A solution of 5 mg of the pellet in 1 ml of the buffer was incubated, along with [^3H]prazosin (200 pM) and samples, at 25° C. for 30 min followed by adding 10 ml of a buffer (50 mM Tris, pH 7.7) to quench the binding reaction. The resulting solution was filtered through a Whatman GF/C glass microfiber filter which was then shaken for 2 hours while being completely submerged in a scintillation cocktail. The radioactivity was measured using a scintillation counter (Beckman, LS6500)

[2] = system: thrombus formation in AVS tube; assay: Thrombus formation in arterio-venous shunt (AVS) tube in rats; assay type: in vivo
Method: An AVS tube was prepared. For this, a scalp vein set was cut into a length of 18 cm, and each end was connected to a 18G syringe needle while a 100% cotton thread 5 cm long was fixed to the center of the tube. Rats were anesthetized with ketamine (250 mg/kg) by injection (i.m.) and underwent laparotomy. An AVS tube filled with saline was installed between the abdominal aorta and the renal vein in such a way that its one syringe needle was inserted in the abdominal aorta and the other syringe needle was inserted in the renal vein. Blood was allowed to pass through the AVS tube so as to form thrombus on the cotton thread. After circulation of blood through the AVS tube for 15 min, the thread was taken out from the AVS tube. The weight of the thrombus formed on the cotton thread was determined by weighing the thread.

[3] = system: acute thrombosis in the pulmonary artery; assay: Acute thrombosis (collagen plus epinephrine i.v.) in mice, recovery from paralysis; assay type: in vivo
Method: A mixture of collagen (300:μg/kg) plus epinephrine (30:μg/kg) was injected into the tail vein of mice (ICR; […], the same mice were employed in all of the following experiments) to induce massive, acute thrombosis in the pulmonary artery. Thus, an acute thrombosis model, in which mice were paralyzed in 1-3 min after the injection and most of them died within 15 min was prepared. To investigate the effect of the compounds of Chemical Formulas 1 and 2 on the acute thrombosis, either of the compounds was orally administered to mice for 1 or 3 days. The intravenous injection of the mixture of collagen and epinephrine was conducted 1 hour after the final oral administration. An observation was taken to examine the mortality change and the recovery from the paralysis and the results are given in Tables 4 and 5, below.
Most of the mice were paralyzed within 1 min after the injection, following dilation of the pupils, difficult breathing, and convulsions. Most of the mice either died within 5 min or were subjected to paralysis for 15 min or longer. Only a few of them recovered from the paralysis.

COc1cc2nc(N3CCN(C(=O)c4ccco4)CC3)nc(N)c2cc1OC [prazosin, reference compound]
Kd [1]: 0.134 ± 0.00891 nM

CC(=O)Oc1ccccc1C(=O)O [Aspirin, reference compound]
% Inhibition of thrombus formation ([2]; 50 mg/kg orally once a day for successive three days): 12.4%
Weight (mg) of thrombus ([2]; 50 mg/kg orally once a day for successive three days, control 42.67 ± 5.381): 37.37 ± 7.369 mg
% Inhibition of thrombus formation ([2]; 50 mg/kg orally once, first series, control 33.61 mg): 40.8%
Weights (mg) of thrombus ([2]; 50 mg/kg orally once, first series, control 33.61 ± 7.620): 19.89 ± 7.213 mg
% Inhibition of thrombus formation ([2]; 50 mg/kg orally once, second series, control 39.54 mg): 36.3%
Weights (mg) of thrombus ([2]; 50 mg/kg orally once, second series, control 39.54 ± 5.625): 25.18 ± 6.725 mg
Mice Recovered, Number ([3]; 50 mg/kg orally once for three successive days, recovered within 15 min): 11
Mice Recovered, % ([3]; 50 mg/kg orally once for three successive days, recovered within 15 min, control 20%): 55%
Mice Recovered, Number ([3]; 50 mg/kg orally once, recovered from thrombotic paralysis within 15 min): 32
Mice Recovered, % ([3]; 50 mg/kg orally once, recovered within 15 min, control 17%): 52%
